According to US10413504B2, “Intravaginal ring drug delivery system” (Merck Sharp & Dohme B.V., priority 2013, dated 2019):

Assay: ENG and E2 solubility, diffusion coefficient and permeability in EVA copolymers (two-layer polymer slab, fit with Fick's 2nd law)
Conditions: ENG
Description: For the determination of the solubility concentration and diffusion coefficient a method was developed. The method consists in preparing polymer slab composites with one layer highly loaded with active ingredient (60 wt %) on top of a layer of placebo polymer. The two layers were first pressed separately in a hot press and thereafter combined, also using the press, into a two layer structure. The diffusion of the active ingredient from the loaded layer through the placebo layer is measured in time, for the active ingredient/polymer combination adequate analysis method. Thereafter the experimental diffusion data is fitted with a mathematical model based on Fick's 2nd law of diffusion in one direction. The differential equation is solved using trigonometrical series with the solubility concentration and diffusion coefficient as only unknown variables.

C#C[C@]1(O)CC[C@H]2[C@@H]3CCC4=CC(=O)CC[C@@H]4[C@H]3C(=C)C[C@@]21CC [ENG, etonogestrel]
Cs (solubility in EVA copolymer) (VA % 9): 0.4 mg/g | D (diffusion coefficient in EVA copolymer) (VA % 9): 2.29 ×10^−13 m^2/s | Cs (solubility in EVA copolymer) (VA % 15): 0.9 mg/g | D (diffusion coefficient in EVA copolymer) (VA % 15): 3.17 ×10^−13 m^2/s | Cs (solubility in EVA copolymer) (VA % 28): 3.22 mg/g | D (diffusion coefficient in EVA copolymer) (VA % 28): 4.80 ×10^−13 m^2/s
